In patent publication US8546357B2, “Boron-containing small molecules for controlling ectoparasites” (priority 2011, dated 2013):

How the values were obtained:
[1] = system: American dog tick (Dermacentor variabilis) nymphs; test: Efficacy against nymphal-stage American dog ticks on rats, oral; assay type: in vivo; conditions: oral point dose of between 5-25 mg/kg bodyweight, 48 hours after treatment
Protocol: Evaluations were conducted using a modified version of the assay as described in Gutierrez et al., J. Med. Entomol. 43(3): 526-532 (2006). This assay may be modified by simply using different tick species (the reference describes Amblyomma americanum ticks), such as Dermacentor variabilis or Rhipicephalus sanguineus ticks, as well as different life-stages (larval, nymphal or adult). Further, the reference describes using topical application methods, but oral, transdermal and subcutaneous injection routes of administration may be used.
In these studies, adult male or female rats, approximately 300 grams in size, were randomly assigned to a treatment group or a control (untreated negative control or fipronil positive control) group. Each group consisted of three (3) to five (5) rats. […] On Day 2, approximately forty-eight (48) hours after treatment, live and dead ticks were removed from animals and counted.
Live tick counts were transformed using the natural logarithm transformation plus one (Ln count+1); addition of one to each count served to adjust for counts that were zero. […] GM percent efficacy of treatments was calculated using the following formula:
Enantiomers were evaluated for activity against American dog tick (Dermacentor variabilis) nymphs on rats. […] On Day 2, approximately forty-eight (48) hours after treatment, live and dead ticks were removed from animals and counted. […]

[2] = system: cat flea (Ctenocephalides felis); test: Residual efficacy against adult cat flea infestations on dogs, oral; assay type: in vivo; conditions: Day 32
Protocol: Immediately following removal of D. variabilis ticks on Day 30, dogs were co-infested with approximately 50 adult, unfed brown dog ticks (R. sanguineus, approximately 50% male and 50% female) and approximately 100 adult, unfed cat fleas (C. felis, approximately 50% male and 50% female). Ticks and fleas were counted and removed on Day 32 (approximately 48 hours after infestation). GM percent efficacy of treatments against both tick species and fleas was calculated using the following formula: […]
The therapeutic (knockdown) and residual efficacy of 7, administered orally at a point dose of 35 mg/kg bodyweight, was evaluated against adult tick (Dermacentor variabilis and Rhipicephalus sanguineus) and adult cat flea (Ctenocephalides felis) infestations on dogs. Twelve (12) male and female beagle dogs were allocated to either an untreated, negative control group or 7 group (n=6 dogs per group). Dogs were infested with approximately 50 unfed, adult D. variabilis ticks on Days −1, 5, 12, 19, 28, 35 and 42. On Day 0, dogs were orally administered gelatin capsules containing Compound 8194 (50% technical active, 47% microcrystalline cellulose and 3% croscarmellose sodium, w/w) at a point dose of 35 mg/kg. D. variabilis tick counts and classification were conducted on Day 1 (thumb count, approximately 24 hours after treatment) and Days 2, 7, 14, 21, 30, 37 and 44 (approximately 48 hours after treatment). Following removal of D. variabilis ticks on Day 30, all dogs were co-infested with approximately 50 unfed, adult brown dog ticks (R. sanguineus) and approximately 100 unfed, adult cat fleas (C. felis). Brown dog tick and cat flea counts were conducted on Day 32 (approximately 48 hours after infestation). GM percent efficacy of treatments against both tick species and fleas was calculated using the following formula: […]
The therapeutic (knockdown) and residual efficacy of S-enantiomer, 9, administered orally at a point dose of 25 mg/kg bodyweight, was evaluated against adult tick (Dermacentor variabilis and Rhipicephalus sanguineus) and adult cat flea (Ctenocephalides felis) infestations on dogs. Twelve (12) male and female beagle dogs were allocated to either an untreated, negative control group or 9 group (n=6 dogs per group). Dogs were infested with approximately 50 unfed, adult D. variabilis ticks on Days −1, 5, 12, 19, and 28. On Day 0, dogs were orally administered gelatin capsules containing 9 (50% technical active, 47% microcrystalline cellulose and 3% croscarmellose sodium, w/w) at a point dose of 25 mg/kg. D. variabilis tick counts and classification were conducted on Day 1 (thumb count, approximately 24 hours after treatment) and Days 2, 7, 14, 21 and 30 (approximately 48 hours after treatment). Following removal of D. variabilis ticks on Day 30, all dogs were co-infested with approximately 50 unfed, adult brown dog ticks (R. sanguineus) and approximately 100 unfed, adult cat fleas (C. felis). Brown dog tick and cat flea counts were conducted on Day 32 (approximately 48 hours after infestation). GM percent efficacy of treatments against both tick species and fleas was calculated using the following formula: […]

Question: `Cc1cc(C2=NOC(c3cc(Cl)c(Cl)c(Cl)c3)(C(F)(F)F)C2)ccc1C(=O)NCc1ccc2c(c1)B(O)OC2(C)C` (stereo not drawn) [Compound 7, N-((1-Hydroxy-3,3-dimethyl-1,3-dihydrobenzo[c][1,2]oxaborol-6-yl)methyl)-2-methyl-4-(5-(3,4,5-trichlorophenyl)-5-(trifluoromethyl)-4,5-dihydroisoxazol-3-yl)benzamide] was tested. Which “Maximum in vivo efficacy (% reduction in live tick counts)” value [1] did it give?
Answer: Its value is 7 (100%), 8 (100%),.

Question: And the Residual efficacy ([2]; Example 7, oral capsule 35 mg/kg)?
Answer: Its Residual efficacy is 100%.

Question: And the “Geometric mean group live parasite counts” value ([2]; Table 2, oral capsule 25 mg/kg)?
Answer: The value was 0.9.
